Laboratory results taken from PMC11345841, “Exploring 2-Sulfonylpyrimidine Warheads as Acrylamide Surrogates for Targeted Covalent Inhibition: A BTK Story” (Journal of Medicinal Chemistry, 2024).
Like-named read-outs stand apart in the source and are kept apart here.

Experiments:
Assay in all cases: KINOMEscan ScanTK
Assay type in all cases: binding
[1] = target: T1, ERBB3 (Homo sapiens, UniProt P21860); details: ERBB3
T1 construct: purchased Eurofins DiscoverX KINOMEscan (scanTK)

[2] = target: T2, INSRR (Homo sapiens, UniProt P14616)
T2 construct: purchased Eurofins DiscoverX KINOMEscan (scanTK)

[3] = target: T3, EPHA2 (Homo sapiens, UniProt P29317)
T3 construct: purchased Eurofins DiscoverX KINOMEscan (scanTK)

[4] = target: T4, ALK(L1196M) (Homo sapiens, UniProt Q9UM73, L1196M)
T4 construct: purchased Eurofins DiscoverX KINOMEscan (scanTK)
T4 sequence (Q9UM73 19-1620 L1196M): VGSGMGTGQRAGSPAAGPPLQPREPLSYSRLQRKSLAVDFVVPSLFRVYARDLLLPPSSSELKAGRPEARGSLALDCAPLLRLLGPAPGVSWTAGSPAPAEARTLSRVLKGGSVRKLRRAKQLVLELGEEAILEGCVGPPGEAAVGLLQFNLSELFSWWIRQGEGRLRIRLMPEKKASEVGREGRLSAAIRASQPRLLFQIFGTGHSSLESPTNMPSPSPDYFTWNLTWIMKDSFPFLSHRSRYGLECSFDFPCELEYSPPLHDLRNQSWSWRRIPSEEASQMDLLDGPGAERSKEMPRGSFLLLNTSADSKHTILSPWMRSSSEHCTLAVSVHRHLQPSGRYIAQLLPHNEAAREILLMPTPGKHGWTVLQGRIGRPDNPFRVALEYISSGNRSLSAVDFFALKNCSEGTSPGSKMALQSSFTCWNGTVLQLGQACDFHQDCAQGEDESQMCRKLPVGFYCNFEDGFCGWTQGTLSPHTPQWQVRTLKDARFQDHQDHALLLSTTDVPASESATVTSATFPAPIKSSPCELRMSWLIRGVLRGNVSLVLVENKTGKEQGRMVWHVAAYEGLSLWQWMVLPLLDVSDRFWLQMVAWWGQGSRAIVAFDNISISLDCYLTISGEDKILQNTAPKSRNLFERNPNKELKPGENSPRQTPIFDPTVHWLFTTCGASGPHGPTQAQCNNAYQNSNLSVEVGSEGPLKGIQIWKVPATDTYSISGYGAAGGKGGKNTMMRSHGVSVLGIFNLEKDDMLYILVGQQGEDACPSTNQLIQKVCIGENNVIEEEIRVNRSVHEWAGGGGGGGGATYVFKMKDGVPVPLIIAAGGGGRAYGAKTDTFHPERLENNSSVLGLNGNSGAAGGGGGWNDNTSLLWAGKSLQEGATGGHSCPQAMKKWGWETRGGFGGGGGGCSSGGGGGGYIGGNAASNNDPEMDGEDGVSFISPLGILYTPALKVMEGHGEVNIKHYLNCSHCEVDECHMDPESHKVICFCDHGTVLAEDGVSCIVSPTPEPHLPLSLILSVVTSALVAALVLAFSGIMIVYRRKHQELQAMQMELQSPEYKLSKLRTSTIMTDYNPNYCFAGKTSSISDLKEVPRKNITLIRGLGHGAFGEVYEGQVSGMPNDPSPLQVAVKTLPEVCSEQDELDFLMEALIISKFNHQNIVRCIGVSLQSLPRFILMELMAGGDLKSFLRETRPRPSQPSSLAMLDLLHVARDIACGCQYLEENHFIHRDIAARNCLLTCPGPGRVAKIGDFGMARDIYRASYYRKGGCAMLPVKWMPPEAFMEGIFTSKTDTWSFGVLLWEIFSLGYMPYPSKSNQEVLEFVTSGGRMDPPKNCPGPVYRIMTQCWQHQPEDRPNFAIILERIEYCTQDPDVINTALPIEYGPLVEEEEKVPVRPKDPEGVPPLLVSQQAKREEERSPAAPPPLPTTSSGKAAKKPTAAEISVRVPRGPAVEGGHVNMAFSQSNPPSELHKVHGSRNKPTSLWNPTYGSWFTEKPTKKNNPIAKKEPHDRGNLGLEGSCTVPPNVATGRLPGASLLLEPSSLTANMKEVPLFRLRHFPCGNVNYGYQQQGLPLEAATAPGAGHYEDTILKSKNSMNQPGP

[5] = target: T5, FLT3(R834Q) (Homo sapiens, UniProt P36888, R834Q)
T5 construct: purchased Eurofins DiscoverX KINOMEscan (scanTK)
T5 sequence (P36888 27-993 R834Q): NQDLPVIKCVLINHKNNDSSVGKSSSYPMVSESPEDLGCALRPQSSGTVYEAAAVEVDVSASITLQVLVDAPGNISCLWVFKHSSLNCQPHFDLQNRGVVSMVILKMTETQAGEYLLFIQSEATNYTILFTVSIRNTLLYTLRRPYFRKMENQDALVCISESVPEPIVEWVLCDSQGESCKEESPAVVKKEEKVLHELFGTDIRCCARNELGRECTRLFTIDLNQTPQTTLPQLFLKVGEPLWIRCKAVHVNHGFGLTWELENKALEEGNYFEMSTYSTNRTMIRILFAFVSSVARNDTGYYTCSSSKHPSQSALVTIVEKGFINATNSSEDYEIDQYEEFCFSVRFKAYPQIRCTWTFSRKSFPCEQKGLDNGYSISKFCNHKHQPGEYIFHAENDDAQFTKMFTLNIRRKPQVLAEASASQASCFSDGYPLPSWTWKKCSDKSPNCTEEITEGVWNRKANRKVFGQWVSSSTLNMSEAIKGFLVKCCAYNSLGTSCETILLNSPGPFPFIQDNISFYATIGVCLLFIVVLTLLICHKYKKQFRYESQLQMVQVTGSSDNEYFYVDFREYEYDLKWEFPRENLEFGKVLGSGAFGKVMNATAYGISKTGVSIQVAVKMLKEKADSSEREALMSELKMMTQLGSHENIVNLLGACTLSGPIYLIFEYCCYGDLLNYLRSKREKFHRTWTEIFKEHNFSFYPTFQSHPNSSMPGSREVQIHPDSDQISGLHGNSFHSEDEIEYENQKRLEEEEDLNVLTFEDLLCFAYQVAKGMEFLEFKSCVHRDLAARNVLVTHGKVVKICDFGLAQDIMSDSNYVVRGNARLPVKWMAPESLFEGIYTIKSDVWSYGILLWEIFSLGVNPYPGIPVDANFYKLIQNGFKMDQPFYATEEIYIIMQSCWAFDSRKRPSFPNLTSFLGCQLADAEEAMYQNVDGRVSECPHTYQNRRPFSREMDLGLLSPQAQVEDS

[6] = target: T6, ABL2 (Homo sapiens, UniProt P42684)
T6 construct: purchased Eurofins DiscoverX KINOMEscan (scanTK)
T6 sequence (P42684 whole entry): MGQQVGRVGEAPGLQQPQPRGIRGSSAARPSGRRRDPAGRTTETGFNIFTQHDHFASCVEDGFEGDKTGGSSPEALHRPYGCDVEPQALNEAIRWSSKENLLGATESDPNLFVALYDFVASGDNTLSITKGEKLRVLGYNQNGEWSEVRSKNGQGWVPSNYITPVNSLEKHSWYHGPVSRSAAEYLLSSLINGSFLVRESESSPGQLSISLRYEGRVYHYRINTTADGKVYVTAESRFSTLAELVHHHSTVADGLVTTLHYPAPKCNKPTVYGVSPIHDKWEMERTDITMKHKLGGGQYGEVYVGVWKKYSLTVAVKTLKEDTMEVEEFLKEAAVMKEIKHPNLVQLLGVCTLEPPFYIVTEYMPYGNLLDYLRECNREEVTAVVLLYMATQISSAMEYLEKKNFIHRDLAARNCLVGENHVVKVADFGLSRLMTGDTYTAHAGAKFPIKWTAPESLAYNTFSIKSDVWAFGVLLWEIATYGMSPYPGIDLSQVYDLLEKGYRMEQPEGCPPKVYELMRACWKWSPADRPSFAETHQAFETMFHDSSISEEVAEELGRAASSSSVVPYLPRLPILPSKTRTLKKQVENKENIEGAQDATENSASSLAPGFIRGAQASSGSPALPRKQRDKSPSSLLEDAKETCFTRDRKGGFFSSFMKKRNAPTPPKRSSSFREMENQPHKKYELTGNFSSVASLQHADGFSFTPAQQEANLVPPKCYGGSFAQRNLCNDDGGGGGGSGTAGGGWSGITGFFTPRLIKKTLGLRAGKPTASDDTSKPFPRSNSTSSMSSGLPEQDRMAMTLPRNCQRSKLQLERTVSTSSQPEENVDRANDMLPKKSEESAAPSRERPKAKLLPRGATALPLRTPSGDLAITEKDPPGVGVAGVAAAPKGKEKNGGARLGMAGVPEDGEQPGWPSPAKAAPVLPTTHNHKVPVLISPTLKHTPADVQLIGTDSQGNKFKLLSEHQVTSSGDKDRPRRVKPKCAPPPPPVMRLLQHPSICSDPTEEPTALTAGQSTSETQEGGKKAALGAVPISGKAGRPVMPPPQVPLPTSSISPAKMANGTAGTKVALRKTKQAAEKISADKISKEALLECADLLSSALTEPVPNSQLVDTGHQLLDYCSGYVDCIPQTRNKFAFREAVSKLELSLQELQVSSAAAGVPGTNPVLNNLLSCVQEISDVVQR

[7] = target: T7, EGFR(S752-I759del) (Homo sapiens, UniProt P00533, DEL752-759)
T7 construct: purchased Eurofins DiscoverX KINOMEscan (scanTK)

[8] = target: T8, FGFR1 (Homo sapiens, UniProt P11362)
T8 construct: purchased Eurofins DiscoverX KINOMEscan (scanTK)
T8 sequence (P11362 22-822): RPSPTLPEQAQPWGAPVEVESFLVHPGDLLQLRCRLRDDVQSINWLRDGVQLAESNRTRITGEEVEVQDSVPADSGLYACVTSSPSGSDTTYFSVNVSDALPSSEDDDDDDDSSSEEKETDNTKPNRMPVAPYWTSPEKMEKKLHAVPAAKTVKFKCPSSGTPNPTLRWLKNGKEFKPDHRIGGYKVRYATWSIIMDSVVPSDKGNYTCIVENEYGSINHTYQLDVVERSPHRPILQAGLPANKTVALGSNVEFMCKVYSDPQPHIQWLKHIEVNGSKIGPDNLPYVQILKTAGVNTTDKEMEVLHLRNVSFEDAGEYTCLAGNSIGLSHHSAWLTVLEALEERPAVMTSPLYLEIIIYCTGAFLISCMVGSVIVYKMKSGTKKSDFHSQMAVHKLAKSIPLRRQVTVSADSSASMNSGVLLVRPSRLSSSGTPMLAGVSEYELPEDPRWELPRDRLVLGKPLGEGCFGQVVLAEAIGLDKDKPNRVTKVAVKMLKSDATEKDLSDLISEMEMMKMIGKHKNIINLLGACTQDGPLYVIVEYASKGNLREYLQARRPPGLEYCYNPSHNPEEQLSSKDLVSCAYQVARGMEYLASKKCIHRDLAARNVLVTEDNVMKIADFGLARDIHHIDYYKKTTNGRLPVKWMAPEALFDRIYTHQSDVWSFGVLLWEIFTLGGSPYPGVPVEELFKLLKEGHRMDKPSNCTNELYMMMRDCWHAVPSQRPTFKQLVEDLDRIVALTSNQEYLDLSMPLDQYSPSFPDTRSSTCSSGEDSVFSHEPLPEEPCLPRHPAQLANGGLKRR

[9] = target: T9, FGFR4 (Homo sapiens, UniProt P22455)
T9 construct: purchased Eurofins DiscoverX KINOMEscan (scanTK)

[10] = target: T10, EGFR(G719C) (Homo sapiens, UniProt P00533, G719C)
T10 construct: purchased Eurofins DiscoverX KINOMEscan (scanTK)
T10 sequence (P00533 25-1210 G719C): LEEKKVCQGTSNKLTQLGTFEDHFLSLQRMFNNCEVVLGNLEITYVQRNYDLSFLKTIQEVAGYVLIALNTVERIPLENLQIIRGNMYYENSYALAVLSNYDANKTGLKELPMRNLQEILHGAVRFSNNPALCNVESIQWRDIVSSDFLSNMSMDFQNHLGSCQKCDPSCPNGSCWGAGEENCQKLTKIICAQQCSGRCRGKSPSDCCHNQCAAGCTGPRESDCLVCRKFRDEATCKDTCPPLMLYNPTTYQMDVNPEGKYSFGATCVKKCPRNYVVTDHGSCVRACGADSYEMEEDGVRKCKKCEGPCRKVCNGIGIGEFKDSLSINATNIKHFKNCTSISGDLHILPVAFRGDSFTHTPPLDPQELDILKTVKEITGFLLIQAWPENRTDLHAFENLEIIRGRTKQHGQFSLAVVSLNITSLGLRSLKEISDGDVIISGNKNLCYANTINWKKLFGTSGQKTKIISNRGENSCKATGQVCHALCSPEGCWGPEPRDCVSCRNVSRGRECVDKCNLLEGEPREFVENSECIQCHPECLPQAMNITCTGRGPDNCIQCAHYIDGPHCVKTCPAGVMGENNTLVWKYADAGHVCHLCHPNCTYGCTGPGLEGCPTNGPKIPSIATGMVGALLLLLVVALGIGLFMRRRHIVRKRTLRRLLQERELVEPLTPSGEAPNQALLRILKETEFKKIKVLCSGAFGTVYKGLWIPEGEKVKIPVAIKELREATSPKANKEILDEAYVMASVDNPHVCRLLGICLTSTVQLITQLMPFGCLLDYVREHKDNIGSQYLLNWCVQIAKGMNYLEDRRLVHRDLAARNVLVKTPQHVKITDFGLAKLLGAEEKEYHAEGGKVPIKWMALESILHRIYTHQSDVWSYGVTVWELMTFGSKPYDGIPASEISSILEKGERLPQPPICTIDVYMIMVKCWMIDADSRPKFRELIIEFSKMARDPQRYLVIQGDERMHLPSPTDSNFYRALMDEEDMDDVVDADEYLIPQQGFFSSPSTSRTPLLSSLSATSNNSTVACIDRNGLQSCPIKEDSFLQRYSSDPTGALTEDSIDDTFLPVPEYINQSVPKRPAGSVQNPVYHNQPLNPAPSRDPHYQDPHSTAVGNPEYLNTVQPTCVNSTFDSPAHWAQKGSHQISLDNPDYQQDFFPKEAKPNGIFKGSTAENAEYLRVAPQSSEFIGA

[11] = target: T11, TRKB (Homo sapiens, UniProt Q16620); details: TRKB
T11 construct: purchased Eurofins DiscoverX KINOMEscan (scanTK)

[12] = target: T12, JAK1(JH1domain-catalytic) (Homo sapiens, UniProt P23458)
T12 construct: JAK1(JH1domain-catalytic); purchased Eurofins DiscoverX KINOMEscan (scanTK)

[13] = target: T13, EGFR(L858R) (Homo sapiens, UniProt P00533, L858R)
T13 construct: purchased Eurofins DiscoverX KINOMEscan (scanTK)

[14] = target: T14, JAK3(JH1domain-catalytic) (Homo sapiens, UniProt P52333)
T14 construct: JAK3(JH1domain-catalytic); purchased Eurofins DiscoverX KINOMEscan (scanTK)
T14 sequence (P52333 822-1124 limits assumed): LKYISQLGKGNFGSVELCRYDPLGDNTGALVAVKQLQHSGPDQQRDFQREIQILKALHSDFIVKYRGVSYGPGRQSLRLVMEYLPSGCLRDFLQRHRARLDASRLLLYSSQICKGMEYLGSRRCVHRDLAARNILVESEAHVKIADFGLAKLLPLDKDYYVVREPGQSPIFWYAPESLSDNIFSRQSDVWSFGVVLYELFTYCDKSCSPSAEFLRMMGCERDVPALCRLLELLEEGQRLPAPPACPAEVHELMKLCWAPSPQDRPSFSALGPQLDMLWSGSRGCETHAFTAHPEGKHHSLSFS

Structure (SMILES): CCOC(=O)c1cnc(S(C)(=O)=O)nc1N1CCC[C@@H](n2nc(-c3ccc(Oc4ccccc4)cc3)c3c(N)ncnc32)C1 [Compound 8c, Ethyl (R)-4-(3-(4-Amino-3-(4-phenoxyphenyl)-1H-pyrazolo[3,4-d]pyrimidin-1-yl)piperidin-1-yl)-2-(methylsulfonyl)pyrimidine-5-carboxylate]
- % of control difference from compound Ib at 1 µM ([1]; @1000nM): 39%
- remaining binding at 1 µM ([1]; @1000nM, read-out: %Control): 39%
- remaining binding at 1 µM ([1]; read-out: %Control @1000nM): 39%
- difference in %Control versus compound Ib at 1 µM ([2]; @1000nM): -9%
- remaining binding at 1 µM ([2]; @1000nM, read-out: %Control): 87%
- remaining binding at 1 µM ([2]; read-out: %Control @1000nM): 87%
- difference in %Control versus compound Ib at 1 µM ([3]; @1000nM): -2%
- remaining binding at 1 µM ([3]; @1000nM, read-out: %Control): 98%
- remaining binding at 1 µM ([3]; read-out: %Control @1000nM): 98%
- difference in % of control vs compound Ib at 1 µM ([4]; @1000nM): -23%
- remaining binding at 1 µM ([4]; @1000nM, read-out: %Control): 77%
- remaining binding at 1 µM ([4]; read-out: %Control @1000nM): 77%
- difference in %Control versus compound Ib at 1 µM ([5]; @1000nM): 38%
- remaining binding at 1 µM ([5]; @1000nM, read-out: %Control): 99%
- remaining binding at 1 µM ([5]; read-out: %Control @1000nM): 99%
- difference in %Control from reference compound Ib at 1 µM ([6]; @1000nM): 57%
- remaining binding at 1 µM ([6]; @1000nM, read-out: %Control): 98%
- remaining binding at 1 µM ([6]; read-out: %Control @1000nM): 98%
- difference in %Control versus compound Ib at 1 µM ([7]; @1000nM): 98%
- remaining binding at 1 µM ([7]; @1000nM, read-out: %Control): 100%
- remaining binding at 1 µM ([7]; read-out: %Control @1000nM): 100%
- difference in %Control from compound Ib at 1 µM ([8]; @1000nM): 53%
- remaining binding at 1 µM ([8]; @1000nM, read-out: %Control): 86%
- remaining binding at 1 µM ([8]; read-out: %Control @1000nM): 86%
- difference in %Control from compound Ib at 1 µM ([9]; @1000nM): -5%
- remaining binding at 1 µM ([9]; @1000nM, read-out: %Control): 91%
- remaining binding at 1 µM ([9]; read-out: %Control @1000nM): 91%
- difference in %Control vs compound Ib at 1 µM ([10]; @1000nM): 6.4%
- remaining binding at 1 µM ([10]; @1000nM, read-out: %Control): 7.5%
- remaining binding at 1 µM ([10]; read-out: %Control @1000nM): 7.5%
- difference in %Control versus compound Ib at 1 µM ([11]; @1000nM): -15%
- remaining binding at 1 µM ([11]; @1000nM, read-out: %Control): 77%
- remaining binding at 1 µM ([11]; read-out: %Control @1000nM): 77%
- difference in %Control versus compound Ib at 1 µM ([12]; @1000nM): 6%
- remaining binding at 1 µM ([12]; @1000nM, read-out: %Control): 100%
- remaining binding at 1 µM ([12]; read-out: %Control @1000nM): 100%
- %Control difference from compound Ib at 1 µM ([13]; @1000nM): 64.1%
- remaining binding at 1 µM ([13]; @1000nM, read-out: %Control): 66%
- remaining binding at 1 µM ([13]; read-out: %Control @1000nM): 66%
- difference in %Control from compound Ib at 1 µM ([14]; @1000nM, JAK3(JH1domain-catalytic)): 94.5%
- remaining binding at 1 µM ([14]; @1000nM, JAK3(JH1domain-catalytic), read-out: %Control): 100%
- remaining binding at 1 µM ([14]; JAK3(JH1domain-catalytic), read-out: %Control @1000nM): 100%
- inhibition at 1 µM ([14]; ScanTK, 1 μM): < 1%
